pEC50, pIC50: −log10 of the molar value. Like-named read-outs stand apart in the source and are kept apart here.
Assays:
[1] = system: NUGC4 (P53 WT); test: Cell viability assay (CellTiter-Glo, 6 days), NUGC4; assay type: cell-based; details: cell viability, 6 days, CellTiter-Glo, read-out: NUGC4 (P53 WT) IC50
How it was run: (§1)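 Cells seeded overnight at 37 °C, then exposed to compounds in medium for 6 days. Viability read by CellTiter-Glo luminescence, normalized to DMSO cell wells (high) and medium-only wells (low); IC50 taken as concentration giving 50% viability from 4-parameter logistic fit.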

[2] = system: NUGC3 (P53 Y220C); test: Cell viability assay (CellTiter-Glo, 6 days), NUGC3; assay type: cell-based; details: cell viability, 6 days, CellTiter-Glo, read-out: NUGC3 (P53 Y220C) IC50
How it was run: as §1

[3] = molecular target: T1, His-p53 Y220C (94-294) protein (Homo sapiens, UniProt P04637, Y220C); test: In vitro DNA binding assay (HTRF); assay type: biochemical; details: % activation normalized to 2 μM Ref-1a high control
T1 construct: His-p53 Y220C (94-294) protein

[4] = system: NUGC-3_P53_Luc single clonal cell line (p53 Y220C); test: Reporter gene assay (p53 RE luciferase); assay type: cell-based; details: luciferase reporter, 6 hours, normalized to Ref-1a (10 μM) high control, read-out: p53(Y220C)_NUGC-3 EC50
How it was run: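 NUGC-3 cells stably carrying a p53 RE-driven luc2P reporter, washed free of phenol red, exposed to compound for 6 h at 37 °C; luminescence read. Activity normalised between DMSO (low) and Ref-1a 10 μM (high) controls; EC50 from 4-parameter logistic fit or Excel as concentration giving 50% activity.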

SMILES | pEC50 [3] | pIC50 ([1]; Homo sapiens, NUGC-4, 144 h) | pIC50 ([2]; Homo sapiens, NUGC-3, 144 h) | pEC50 ([4]; Homo sapiens, NUGC-3) | pEC50 ([4]; Homo sapiens, NUGC-3, 6 h) | pIC50 [1] | pIC50 [2] | pEC50 [4]
CCN1CC[C@H](Nc2cccc3c(CC(F)(F)F)c(C#CCNc4ccc(P(C)(C)=O)cc4OC)sc23)[C@H](F)C1 [Example 136, (4-((3-(7-(((3R,4S)-1-ethyl-3-fluoropiperidin-4-yl)amino)-3-(2,2,2-trifluoroethyl)benzo[b]thiophen-2-yl)prop-2-yn-1-yl)amino)-3-methoxyphenyl)dimethylphosphine oxide] | 7.34 | 5.31 | 5.79 | – | 6.62 | – | – | –
CNC(=O)c1ccc(NCC#Cc2cc3c(N[C@H]4CCN(C)C[C@H]4F)cccc3n2CC(F)(F)F)c(OC)c1 [Example 111, 4-((3-(4-(((3R,4S)-3-fluoro-1-methylpiperidin-4-yl)amino)-1-(2,2,2-trifluoroethyl)-1H-indol-2-yl)prop-2-yn-1-yl)amino)-3-methoxy-N-methylbenzamide] | 7.00 | 4.88 | 5.74 | – | 6.80 | – | – | –
CNC(=O)c1ccc(NCC#Cc2cc3c(N[C@@H]4CCN(C)C[C@@H]4F)cccc3n2CC(F)(F)F)c(OC)c1 [Example 57, 4-((3-(4-(((Z)-3-fluoro-1-methylpiperidin-4-yl)amino)-1-(2,2,2-trifluoroethyl)-1H-indol-2-yl)prop-2-yn-1-yl)amino)-3-methoxy-N-methylbenzamide] | 7.54 | 4.92 | 5.95 | 7.10 | – | – | – | –
COc1cc(P(C)(C)=O)ccc1NCC#Cc1sc2c(N[C@H]3CCN(C)C[C@H]3C)cccc2c1CC(F)(F)F [Example 125, (4-((3-(7-(((3R,4S)-1,3-dimethylpiperidin-4-yl)amino)-3-(2,2,2-trifluoroethyl)benzo[b]thiophen-2-yl)prop-2-yn-1-yl)amino)-3-methoxyphenyl)dimethylphosphine oxide] | 7.27 | 5.59 | 5.90 | – | 6.74 | – | – | –
COc1cc(P(C)(C)=O)ccc1NCC#Cc1sc2c(NC3CC4(C3)CN(C)C4)cccc2c1CC(F)(F)F [Example 189, (3-methoxy-4-((3-(7-((2-methyl-2-azaspiro[3.3]heptan-6-yl)amino)-3-(2,2,2-trifluoroethyl)benzo[b]thiophen-2-yl)prop-2-yn-1-yl)amino)phenyl)dimethylphosphine oxide] | 7.35 | 5.06 | 5.44 | 6.15 | – | – | – | –
COc1cc(P(C)(C)=O)ccc1NCC#Cc1sc2c(NC3[C@@H]4COC[C@H]3CN(C)C4)cccc2c1CC(F)(F)F (single isomer, unassigned) [Example 197] | 7.59 | 4.94 | 6.41 | 6.92 | – | – | – | –
CN1CC[C@@H](Nc2cccc3c(CC(F)(F)F)c(C#CCNc4ccc(P(C)(C)=O)cc4OC(F)(F)F)sc23)[C@@H](F)C1 [Example 138, (4-((3-(7-(((3S,4R)-3-fluoro-1-methylpiperidin-4-yl)amino)-3-(2,2,2-trifluoroethyl)benzo[b]thiophen-2-yl)prop-2-yn-1-yl)amino)-3-(trifluoromethoxy)phenyl)dimethylphosphine oxide] | 7.47 | 4.95 | 6.06 | – | 7.15 | – | – | –
CN1CC[C@H](Nc2cccc3c(CC(F)(F)F)c(C#CCNc4ccc(P(C)(C)=O)cc4C(F)F)sc23)[C@H](F)C1 [Example 225, (3-(difluoromethyl)-4-((3-(7-(((3R,4S)-3-fluoro-1-methylpiperidin-4-yl)amino)-3-(2,2,2-trifluoroethyl)benzol[b]thiophen-2-yl)prop-2-yn-1-yl)amino)phenyl)dimethylphosphine oxide] | 7.44 | 4.87 | 6.36 | – | 6.77 | – | – | –
COc1cc(P(C)(C)=O)ccc1NCC#Cc1sc2c(NC3C(C)CN(C)CC3C)cccc2c1CC(F)(F)F (stereo not drawn) [Example 132, (3-methoxy-4-((3-(3-(2,2,2-trifluoroethyl)-7-(((E)-1,3,5-trimethylpiperidin-4-yl)amino)benzo[b]thiophen-2-yl)prop-2-yn-1-yl)amino)phenyl)dimethylphosphine oxide] | 7.23 | – | – | – | – | 5.51 | 6.09 | 6.59
COc1cc(P(C)(C)=O)ccc1NCC#Cc1sc2c(N[C@@H]3CCN(C(C)C)C[C@@H]3F)cccc2c1CC(F)(F)F (racemic) [Example 86, (4-((3-(7-(((Z)-3-fluoro-1-isopropylpiperidin-4-yl)amino)-3-(2,2,2-trifluoroethyl)benzo[b]thiophen-2-yl)prop-2-yn-1-yl)amino)-3-methoxyphenyl)dimethylphosphine oxide] | 7.43 | 5.34 | 6.10 | – | 6.85 | – | – | –

More lines, main results first:

pEC50 [3] | SMILES | pIC50 ([1]; Homo sapiens, NUGC-4, 144 h) | pIC50 ([2]; Homo sapiens, NUGC-3, 144 h) | pEC50 ([4]; Homo sapiens, NUGC-3) | pEC50 ([4]; Homo sapiens, NUGC-3, 6 h) | pIC50 [1] | pIC50 [2] | pEC50 [4]
7.46 | CN1CC[C@@H](Nc2cccc3c(CC(F)(F)F)c(C#CCNc4ccc(P(C)(C)=O)cc4OC4CC4)sc23)[C@@H](F)C1 [Example 150, (3-cyclopropoxy-4-((3-(7-(((3S,4R)-3-fluoro-1-methylpiperidin-4-yl)amino)-3-(2,2,2-trifluoroethyl)benzo[b]thiophen-2-yl)prop-2-yn-1-yl)amino)phenyl)dimethylphosphine oxide] | 5.00 | 6.41 | 7.10 | – | – | – | –
7.74 | COc1cc(P(C)(C)=O)ccc1NCC#Cc1sc2c(NC3CCN(C)CC3F)cccc2c1C(O)C(F)(F)F (racemic) [Example 188, (4-((3-(7-((3-fluoro-1-methylpiperidin-4-yl)amino)-3-(2,2,2-trifluoro-1-hydroxyethyl)benzo[b]thiophen-2-yl)prop-2-yn-1-yl)amino)-3-methoxyphenyl)dimethylphosphine oxide(racemic)] | 4.39 | 5.72 | 7.22 | – | – | – | –
7.06 | CNC(=O)c1ccc(NCC#Cc2sc3c(N[C@@H]4CCN(C)C[C@@H]4F)cccc3c2CC(F)(F)F)c(OCCOC)c1 (racemic) [Example 81, 4-((3-(7-(((Z)-3-fluoro-1-methylpiperidin-4-yl)amino)-3-(2,2,2-trifluoroethyl)benzo[b]thiophen-2-yl)prop-2-yn-1-yl)amino)-3-(2-methoxyethoxy)-N-methylbenzamide] | 5.06 | 5.77 | 6.54 | – | – | – | –
7.48 | CN1CC[C@@H](Nc2cccc3c(CC(F)(F)F)c(C#CCNc4ccc(P(C)(C)=O)c5c4OCC5)sc23)[C@@H](F)C1 [Example 187, (7-((3-(7-(((3S,4R)-3-fluoro-1-methylpiperidin-4-yl)amino)-3-(2,2,2-trifluoroethyl)benzo[b]thiophen-2-yl)prop-2-yn-1-yl)amino)-2,3-dihydrobenzofuran-4-yl)dimethylphosphine oxide] | 5.27 | 6.54 | 7.30 | – | – | – | –
7.33 | COc1cc(C(N)=O)ccc1NCC#Cc1sc2c(NC3CCN(C)CC3F)cccc2c1CC(F)(F)F (stereo not drawn) [Example 46, 4-((3-(7-(((Z)-3-fluoro-1-methylpiperidin-4-yl)amino)-3-(2,2,2-trifluoroethyl)benzo[b]thiophen-2-yl)prop-2-yn-1-yl)amino)-3-methoxybenzamide] | – | – | – | – | 4.98 | 5.87 | 6.77
7.25 | CN1CCC(Nc2cccc3c(CC(F)(F)F)c(C#CCNc4ccc(P(C)(C)=O)cc4OCF)sc23)C(F)C1 (stereo not drawn) [Example 10, (4-((3-(7-(((Z)-3-fluoro-1-methylpiperidin-4-yl)amino)-3-(2,2,2-trifluoroethyl)benzo[b]thiophen-2-yl)prop-2-yn-1-yl)amino)-3-(fluoromethoxy)phenyl)dimethylphosphine oxide] | – | – | – | – | 4.68 | 5.77 | 6.64
7.17 | COc1cc(P(C)(C)=O)ccc1NCC#Cc1sc2c(N[C@@H]3CCN(C4CCOC4)C[C@@H]3F)cccc2c1CC(F)(F)F (stereo partly drawn) [Example 157, (4-((3-(7-(((3S,4R)-3-fluoro-1-(tetrahydrofuran-3-yl)piperidin-4-yl)amino)-3-(2,2,2-trifluoroethyl)benzo[b]thiophen-2-yl)prop-2-yn-1-yl)amino)-3-methoxyphenyl)dimethylphosphine oxide] | 5.32 | 6.28 | 6.96 | – | – | – | –
7.47 | COc1cc(P(C)(C)=O)ccc1NCC#Cc1sc2c(NC3CCN(C)CC3F)cccc2c1CC(F)(F)F (stereo not drawn) [Example 15, (4-((3-(7-(((Z)-3-fluoro-1-methylpiperidin-4-yl)amino)-3-(2,2,2-trifluoroethyl)benzo[b]thiophen-2-yl)prop-2-yn-1-yl)amino)-3-methoxyphenyl)dimethylphosphine oxide] | – | – | – | – | 5.16 | 6.44 | 6.51

From patent US20240400591A1 (Jacobio Pharmaceuticals Co., Ltd., priority 2021, published 2024)
